Source: paper PMC3769975 (ChemMedChem, 2012)
pEC50: −log10 of the molar value. In brackets after ≈: the same amount, converted by molar mass. Where two headings read alike, the source gives them in different places.

What was measured:
[1] = system: WSN-Ren luciferase virus (influenza A/WSN/33) in MDCK-HA cells; assay: microbe, parasite or virus in culture; type: cell-based, influenza A/WSN/33 (H1N1)
[2] = system: wild type influenza A/WSN/33 virus in A549 cells; assay: qRT-PCR of viral NP mRNA, A549 cells infected with wild type WSN virus; type: cell-based, influenza A/WSN/33 (H1N1); conditions: 10 μM, 1 μM and 0.1 μM
[3] = 1D proton NMR solubility experiment; type: physicochemical; conditions: PBS with 2% DMSO, aqueous buffer, kinetic from dmso stock
[4] = system: WSN-Ren luciferase virus in MDCK-HA cells; type: cell-based, influenza A/WSN/33 (H1N1)
[5] = molecular target: recombinant neuraminidase N1 (A/California/04/09) (Influenza A virus (A/California/04/2009(H1N1)), UniProt C3W5S3); assay: Fluorescent neuraminidase assay; type: biochemical, influenza A/California/04/09; conditions: serial dilutions from 100 μM to 6.4 nM
[6] = system: MDCK-HA cell line
[7] = system: panel of 13 kinases; assay: Kinase panel inhibition; type: biochemical; conditions: concentrations up to 5 μM

Cc1cc2cc(CNCCO)c(=O)[nH]c2cc1C [Compound 6, 3-((2-hydroxyethylamino)methyl)-6,7-dimethylquinolin-2(1H)-one]
anti-influenza activity (in words, SAR discussion) [1]: did not elicit any anti-influenza activity
pEC50 ([1]; Influenza A virus, WSN): < 4.00

CCC(C)(C)n1nnnc1C(C(C)C)N(CCO)Cc1cc2cc(C)c(C)cc2[nH]c1=O (stereo not shown) [Compound 7, 3-(((2-hydroxyethyl)(2-methyl-1-(1-tert-pentyl-1H-tetrazole-5-yl)propyl)amino)methyl)-6,7-dimethylquinolin-2(1H)-one]
viral NP mRNA expression levels [2]: reduced NP mRNA expression levels in a dose dependent matter
solubility [3]: 10 to 15 µM (≈ 4.41 to 6.61 µg/mL)
viral NP mRNA expression compared to DMSO treated controls [4]: reduction of the NP mRNA expression
viral replication (NP mRNA) after 26 hour incubation ([4]; 10 μM): minimal viral replication
activity against neuraminidase [5]: ineffective
pEC50 ([1]; Influenza A virus, WSN): 7.34
cytotoxicity profile [6]: good cytotoxicity profile
inhibition of selected kinases [7]: did not significantly inhibit

CCC(C)(C)n1nnnc1C(NCc1cc2cc(C)c(C)cc2[nH]c1=O)C(C)C (stereo not shown) [Compound 23, 6,7-dimethyl-3-(((2-methyl-1-(1-(tert-pentyl)-1H-tetrazole-5-yl)propyl)amino)methyl)quinolin-2(1H)-one]
anti-influenza activity (in words, SAR discussion) [1]: inactivation
pEC50 ([1]; Influenza A virus, WSN): < 4.00

Cc1cc2cc(CNC(=O)c3ccccc3)c(=O)[nH]c2cc1C [Compound 24, N-((6,7-dimethyl-2-oxo-1,2-dihydroquinolin-3-yl)methyl)benzamide]
anti-influenza activity (in words, SAR discussion) [1]: not sufficient
pEC50 ([1]; Influenza A virus, WSN): < 4.00

CCC(C)(C)n1nnnc1C(C(C)C)N(Cc1cc2cc(C)c(C)cc2[nH]c1=O)CC1CCCO1 (stereo not shown) [Compound 25, 6,7-dimethyl-3-(((2-methyl-1-(1-(tert-pentyl)-1H-tetrazol-5-yl)propyl)((tetrahydrofuran-2-yl)methyl)amino)methyl)quinolin-2(1H)-one]
pEC50 [1]: 5.53
anti-influenza activity (in words, SAR discussion) [1]: low micromolar range
pEC50 ([1]; Influenza A virus, WSN): ~5.52

CCOC(=O)C1=C[C@@H](OC(CC)CC)[C@H](NC(C)=O)[C@@H](N)C1 [oseltamivir phosphate, reference compound]
potency relative to best compounds of Table 1 [1]: roughly 100 fold
pEC50 ([1]; Influenza A virus, WSN): ~9.30
